This note sets out measurements from US4159384A, “Phenenyltris (carbonylimino)multi-anionic substituted triphenyl acids and salts” (American Cyanamid Company, priority 1978, dated 1979).

The structures appear in SMILES notation. Structures can show the parent of a compound that is named as a salt.

The experiment has as its system shunt pathway. Briefly: Test, Code 036 (C-Shunt inhibitor): lysis of fragile human erythrocytes in autologous serum, cobra venom factor. Particulars: in vitro, appropriate dilutions of the test compound. In kind it is biochemical. The source says:
An active inhibitor protects C2 from C1 and C4; (ii) Test, Code 035 (C3-C9 inhibitor)--This test determines the ability of the late components of human complement (C3-C9) to lyse EAC 142 in the presence of appropriate dilutions of the test compound. An active inhibitor protects EAC 142 from lysis by human C3-C9; (iii) Test, Code 036 (C-Shunt inhibitor)--In this test human erythrocytes rendered fragile are lysed in autologous serum via the shunt pathway activated by cobra venom factor in the presence of appropriate dilutions of the test compound. Inhibition of the shunt pathway results in failure of lysis; (iv) Forssman Vasculitis Test--Here, the well known complement dependent lesion, Forssman vasculitis, is produced in guinea pigs by intradermal injection of rabbit anti-Forssman antiserum. […]

`O=C(Nc1cc(C(=O)O)c(O)c(S(=O)(=O)O)c1)c1cc(C(=O)Nc2cc(C(=O)O)c(O)c(S(=O)(=O)O)c2)cc(C(=O)Nc2cc(C(=O)O)c(O)c(S(=O)(=O)O)c2)c1` [5,5',5"-[s-Phenenyltris(carbonylimino)]tri-3-sulfo salicylic acid trisodium salt]: the “Shunt Inhibition 036 Wells” value is given as “+1 Wells”.
